In experiment [1] the test system is NICD/MAML1 Notch transcriptional activation complex. The experiment is described as follows: MAML1 rescue: HeLa cells co-transfected with NICD and MAML1-FLAG, 12×CSL luciferase. The class given is cell-based. To be noted: 24 hours. As for the experimental part: HeLa cells were co-transfected 800 ng of NICD+3 μg of pCDNA3.1 or 800 ng of NICD+1 μg of MAML1-FLAG or 800 ng of NICD+3 μg of MAML1-FLAG expression vectors. To measure Notch pathway activation, pGL4.26-12×CSL luciferase plasmid was also introduced into the cells. SV40 renilla was used as an internal control. Cells transfected with different combinations and amounts of plasmid were treated with DMSO or increasing concentration of 6-(4-Tert-Butylphenoxy)Pyridin-3-Amine (I3) (1, 2.5, 5 and 10 μM) for 24 hours. 12×CSL driven luciferase activity was measured using dual luciferase assay system.
NICD-GFP overexpression studies were performed using pEGFP-C1-NICD expression plasmid. The FLAG-CMV2 plasmid expressing MAML1-FLAG was a kind gift from Dr. Lizi Wu, Harvard Medical School, Boston.
To further investigate the mechanism of action of 6-(4-Tert-Butylphenoxy)Pyridin-3-Amine (I3), Applicants speculated that 6-(4-Tert-Butylphenoxy)Pyridin-3-Amine (I3) might be targeting one of the components of the transcriptional activation complex. The over expression of this target protein may titrate out 6-(4-Tert-Butylphenoxy)Pyridin-3-Amine (I3) compound and thus rescue 6-(4-Tert-Butylphenoxy)Pyridin-3-Amine (I3) induced pathway inhibition. […] The Notch pathway activation was measured by introducing 12×CSL luciferase plasmid. […]

Experiment [2] deals with primary human TALL samples. The experiment is described as follows: Primary human TALL samples treated with I3. The format is cell-based. The source says:
To further investigate the Notch inhibitory effect of 6-(4-Tert-Butylphenoxy)Pyridin-3-Amine (I3) in a relevant pathological condition, primary human TALL samples were profiled for the activation of Notch signalling. An accumulation of active form of Notch (NICD) was used as a biomarker for pathway activation.

For experiment [3], the system named is nRas driven melanoma cell lines. In words: Alamar blue proliferation assay, nRas driven melanoma cells. The class given is cell-based, human. The settings on record: 10 μM, 4 days. As to the method:
Human T-ALL cell lines RPMI 8402 and KOPTK1, and pancreatic cancer cell line PANC1 as well as nRas driven melanoma cells were seeded in a 96 well plate and treated with 10 μM concentration of 6-(4-Tert-Butylphenoxy)Pyridin-3-Amine (I3) and DAPT for several days. Their growth inhibitory effects were compared with cells treated with equal amount of DMSO. Using Alamar blue assay, the growth kinetics of RPMI 8402 and KOPTK1 were followed for upto 6 days, while PANC1 and nRas melanoma cells were monitored for 4 days. 6-(4-Tert-Butylphenoxy)Pyridin-3-Amine (I3) treatment of RPMI 8402, KOPTK1. […] Statistical analyses were done using student's t.test. *=p value<0.05. ns=not significant.
Alamarblue® proliferation assays were performed to determine the growth kinetics of Notch inhibitor treated cells. Alamar Blue® consists of a cell permeable substrate resazurin. In metabolically active and proliferating cells, resazurin is converted to resorufin due to an intrinsic reducing power of live cells and produces a red fluorescence. Therefore production of resorufin serves as an indicator of the viability of the cell population.
Proliferation assays were performed by seeding 5000 cells/well in a 96 well plate. Cells were treated with DMSO or Notch inhibitors for different time intervals. […] Alamarblue readout was taken using Tecan F500 (Tecan) multiplate reader. […]
Background: Resazurin is reduced to fluorescent resorufin, in cell work by metabolically active cells.

The subject of experiment [4] is Notch2-intracellular domain (N2-ICD). The experiment is described as follows: N2-ICD mediated pathway activation, luciferase reporter. The class given is cell-based. On the technique in general: Reporter assays use an easily measured gene product as a stand-in for the process of interest.
Where [5] appears, read: primary human TALL with accumulation of NICD.

SMILES strings stand for the structures. Entries after “also recorded” stand apart in the source; their conditions may differ.

For `CC(C)(C)c1ccc(Oc2ccc(N)cn2)cc1` [I3, 6-(4-Tert-Butylphenoxy)Pyridin-3-Amine], in experiment [1] (800 ng NICD + 1 μg MAML1-FLAG, I3 1-10 μM), the “Notch signalling, NICD + 1 μg MAML1” value was “can block Notch signalling in a concentration dependent manner”. In addition, the “Notch signalling, NICD alone (no MAML1)” value in experiment [1] (800 ng NICD, I3 1, 2.5, 5 and 10 μM) is “can block Notch signalling in a concentration dependent manner; also recorded: could block Notch signalling activations”. The response to treatment result in experiment [2] (primary human TALL samples without detectable levels of NICD) was “did not respond”. Besides, in experiment [2] (setting [5]), the NICD protein entry was “leads to a downregulation of this protein” and the proliferation entry is given as “correlates with a proliferative arrest”. In experiment [3], the “proliferation (Alamar blue)” value was “significantly inhibited the growth; also recorded: caused a significant reduction in their growth potential”. For the same compound, the “pathway activation by N2-ICD” value in experiment [4] was “could also block pathway activation by Notch1-intracellular domain (NICD) and Notch2-intracellular domain (N2-ICD); also recorded: inhibits pathway activation via intracellular domains of Notch1 (NICD) and Notch2 (N2-ICD)”.

The record behind these values is patent publication US10054581B1, “Inhibitors of notch signaling pathway and use thereof in treatment of cancers” (Ecole Polytechnique Federale de Lausanne (EPFL), priority 2011, dated 2018).
